Test results reported in article PMC8317065, “UPLC-MS/MS Method for Analysis of Endocannabinoid and Related Lipid Metabolism in Mouse Mucosal Tissue” (Frontiers in Physiology, 2021).

System: DGL
Test: DGL (MAG biosynthetic enzyme) activity assay, UPLC-MS/MS, jejunum epithelium protein isolates
Format: biochemical, mouse
Conditions: jejunum epithelium protein 50 μg
Experimental: Homogenized samples were centrifuged at 800 × g for 15 m at 4°C. The supernatant was collected in a 2.0 mL centrifuge tube and sonicated twice for 10 s. Samples underwent two sequential freeze thaw cycles using liquid N2. Samples were again centrifuged at 800 × g, 15 min, 4°C and the supernatant was collected. Total protein was then quantified via BCA assay and normalized between all samples. Protein isolations for each assay and each tissue were performed separately.
Substrate solutions were prepared by drying stock 19:2 DAG (20 nmol/reaction) under N2 steam (99.998% pure) and reconstituted in a solution of 50 mM Tris–HCl with 0.2% Triton x-100 (pH = 7.0). This solution was bath sonicated for 60 min at room temperature while protein samples were prepared. […] The products of the reaction were extracted via lipid extraction methods (see section “Lipid Extraction for Enzyme Assays”) and quantified via UPLC-MS/MS (see section “Quantitation of MAG Biosynthetic Enzyme Activity Assay Products”).
Lipids were extracted using liquid-liquid extraction with chloroform (2.0 mL) followed by 0.8 mL 0.2-micron ultra-purified water. […] Products were detected and quantified via UPLC-MS/MS techniques (see section “UPLC-MS/MS Detection of Analytes”). […]

SMILES: CCCCCCCCCCC[C@@H](C[C@@H]1OC(=O)[C@H]1CCCCCC)OC(=O)[C@H](CC(C)C)NC=O [THL, tetrahydrolipstatin]
- DGL activity (normalized response) (highest inhibitor concentration of range (1,000 nM)): 20.39 ± 6.65%
- DGL activity (normalized response) (lowest inhibitor concentration of range (3 nM)): 108.85 ± 6.19%
